# Assay results: patent publication US20210322397A1, “METHOD TO PREVENT AND TREAT GINGIVAL RECESSION BY CALCIUM CHANNEL BLOCKERS, ANGIOTENSIN CONVERTING ENZYME INHIBITORS, AND ANGIOTENSIN RECEPTOR BLOCKERS” (priority 2018, published 2021)
# Where two headings read alike, the source gives them in different places.
# Experiments:
# [1] = tested on: gingival recession; settings: patient previously successfully treated, after a period of time
# Protocol: A composition comprising the ACE inhibitor enalapril is directly applied to the tissue of the gum on one side of the mouth while the other side is left untreated.
# A composition comprising the angiotensin receptor blocker losartan is directly applied to the tissue of the gum on one side of the mouth while the other side is left untreated.
# A composition comprising the ACE inhibitor enalapril is administered by injection into the tissue of the gum on one side of the mouth while the other side is left untreated.
# A composition comprising the angiotensin receptor blocker losartan is administered by injection into the tissue of the gum on one side of the mouth while the other side is left untreated.
# [2] = tested on: gingival recession; settings: patient with gingival recession throughout the mouth
# Excerpt: (§1) A patient is diagnosed with gingival recession throughout the mouth.
# A patient is diagnosed with gingival recession throughout the mouth. A composition comprising the ACE inhibitor enalapril is directly applied to the tissue of the gum on one side of the mouth while the other side is left untreated.
# A patient is diagnosed with gingival recession throughout the mouth. A composition comprising the angiotensin receptor blocker losartan is directly applied to the tissue of the gum on one side of the mouth while the other side is left untreated.
# as §1
# A patient is diagnosed with gingival recession throughout the mouth. A composition comprising the ACE inhibitor enalapril is administered by injection into the tissue of the gum on one side of the mouth while the other side is left untreated.
# A patient is diagnosed with gingival recession throughout the mouth. A composition comprising the angiotensin receptor blocker losartan is administered by injection into the tissue of the gum on one side of the mouth while the other side is left untreated.
# [3] = composition administered by injection into the tissue of the gum on one side
# [4] = composition directly applied to the tissue of the gum on one side
Compound,"recurrence of symptoms of gingival recession, treated side versus untreated side [1, 3]","recurrence of symptoms of gingival recession, treated side versus untreated side [1, 4]","symptoms of gingival recession, treated side versus untreated side [2, 3]","symptoms of gingival recession, treated side versus untreated side [2, 4]"
CCOC(=O)[C@H](CCc1ccccc1)N[C@@H](C)C(=O)N1CCC[C@H]1C(=O)O [enalapril],free of symptoms of gingival recession,free of symptoms of gingival recession,reduced symptoms of gingival recession,reduced symptoms of gingival recession
CCCCc1nc(Cl)c(CO)n1Cc1ccc(-c2ccccc2-c2nn[nH]n2)cc1 [losartan],free of symptoms of gingival recession,free of symptoms of gingival recession,reduced symptoms of gingival recession,reduced symptoms of gingival recession
